Literature values as cited in patent US6468993B1, “Method for reducing development of osteoporosis” (BioNumerik Pharmaceuticals, Inc., priority 1999, dated 2002).

How the values were obtained:
[1] = test system: mice; settings: intravenously, doses higher than 3750 mg/kg
[2] = test system: dogs; settings: intravenously, doses higher than 3750 mg/kg
[3] = test system: humans; settings: doses exceeding 40 g/m^2

| SMILES | adverse effects after administration [1] | adverse effects after administration [2] | adverse effects after administration [3] | accepted oral LD50 [mg/kg] |
| --- | --- | --- | --- | --- |
| O=S(=O)([O-])CCSSCCS(=O)(=O)[O-].[Na+].[Na+] [dimesna, disodium 2,2′-dithiobis ethane sulfonate] | no adverse effects | no adverse effects | no adverse effects | – |
| [Cl-].[Na+] [common table salt] | – | – | – | 3750 |
